Reference: patent publication US6737241B2, “Methods for screening for transdominant intracellular effector peptides and RNA molecules” (Rigel Pharmaceuticals, Inc., priority 1996, dated 2004)

Legend:
[1] = system: NIH 3T3 cells; assay: Staurosporine induction of apoptosis (ethidium bromide/acridine orange double staining); assay type: cell-based; details: 1 uM in serum-free media, within 24 hours
Procedure: D. Staurosporine selection. Staurosporine, an alkaloid from Streptomyces sp., is a potent, broad spectrum inhibitor of protein kinases which binds the ATP site. Addition of 1 uM staurosporine in serum-free media to NIH 3T3 cells induced >99% apoptosis within 24 hours, as determined by ethidium bromide/acridine orange double staining as described for the Fas selection.

[2] = system: 3T3 cells; assay: Apotag / TUNEL assay of apoptosis induced by hTNFa and cycloheximide; assay type: cell-based; details: expressed in 3T3 cells from an MSCV retroviral promoter; hTNFa 50 ng/ml + cycloheximide 6 hours, harvested at 24 hours
Procedure: Apotag assay: TUNEL (TdT-mediated dUTP-fluorescein nick end labeling) Boehringer Mannheim kit, catalog no. 168795
3T3 cells transiently infected with either MFGLacZ, BCL2, or […] plasmids were grown to 50% confluence at the time of induction with hTNFa (50 ng/ml media) and cycloheximide ([…] media) for 6 hours. Cells were washed at 6 hours and harvested at 24 hours after induction. Cells were harvested by pooling all media from cells (in order to collect any apoptotic, floating cells) with the washings and trypsinized cells. The cells were spun and washed with PBS containing 1% BSA, transferred to an eppendorf tube and the wash repeated once.
Cells were fixed in 4% paraformaldehyde at room temperature for 30 minutes, washed in PBS/BSA, then resuspended in permeabilisation buffer for 2 minutes on ice. After permeabilisation, cells were washed twice in PBS/BSA and incubated at 37° C. for 1 hour with labeling buffer containing fluoresceinated dUTP, unlabeled nucleotide mixture and terminal deoxynucleotidyl transferase (TdT). Cells were washed twice with PBS/BSA, resuspended in PBS/BSA and transferred to a FACS tube for analysis. Samples were also visualized under the fluorescence microscope.

[3] = system: 3T3 cells; assay: Propidium iodide staining of fixed cells to assay for apoptosis (TNF/CXH); assay type: cell-based; details: expressed in 3T3 cells
Procedure: Propidium Iodide staining of fixed cells to assay for apoptosis: (Sherwood and Schimke, Methods in Cell Biology, 46:77-87, 1995) 3T3 cells transiently infected with MFGLacZ, Bcl2, or CPP32 were plated and treated with TNF/CXH as described above, and harvested and washed as above. Cells were then resuspended in 70% ethanol in PBS at 4° C. and kept at 4° C. overnight. When ready to FACS, cells were stained with propidium iodide as follows. Cells were spun at 14,000 RPM for 10 seconds and washed once with PBS/BSA. Cells were then resuspended in […] staining solution (PBS with 50 mg/ml RNase A (DNase-free) with 10 mg/ml propidium iodide) and incubated at 37° C for at least 1 hour. Cells were then pelleted and resuspended in PBS/BSA solution containing 10 mg/ml propidium iodide and analyzed by FACS scanning.

[4] = target: T1, CPP32 (Mus musculus, UniProt P70677); assay: Enzymatic assay of CPP32 activity (DEVD-pNA cleavage) in extracts of TNF/CXH-stimulated 3T3 cells; assay type: biochemical; details: cell extracts, 30 min to 4 hours after TNF/CXH; control WIN cells rise at 2 hours
T1 construct: endogenous in cells; host or cells: 3T3 cells (lysate after TNF/cycloheximide stimulation)
T1 sequence (P70677 29-175 limits assumed): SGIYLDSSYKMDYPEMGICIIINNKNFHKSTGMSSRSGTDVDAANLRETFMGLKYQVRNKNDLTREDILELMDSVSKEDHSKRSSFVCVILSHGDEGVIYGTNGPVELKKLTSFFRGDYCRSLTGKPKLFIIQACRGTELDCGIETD
T1 sequence (P70677 176-277 limits assumed): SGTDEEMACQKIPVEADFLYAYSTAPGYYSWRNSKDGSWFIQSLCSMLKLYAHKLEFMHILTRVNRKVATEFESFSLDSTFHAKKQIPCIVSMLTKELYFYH
Procedure: Enzymatic Assay of CPP32 activity: CPP32 Assay Kit: Clontech CPP32 Colorimetric Assay Kit (Cat. No. K2027-2): 3T3 cells were infected with the vectors described in Part I, section C, and selected in G418 media prior to assay. 6-well plates of 3T3 cells at near confluence were stimulated with TNF/CXH as described above and harvested at 30 min, 1, 2 and 4 hours after stimulation as follows. Cells were trypsinized and collected as described above. After transfering to an eppendorf tube, cells were spun and resuspended in […] chilled Cell Lysis Buffer. Cells were incubated for 10 minutes on ice, then […] of 2× Reaction Buffer containing DTT was added to each tube. 5 ml of the calorimetric conjugated substrate (DEVD-paranitroanilide, 50 mM final concentration) was added to each tube and incubated at 37° C. for 30 minutes. Samples were transferred to a 96 well plate and read on a spectrophotometer at O.D. of 405. […] By 4 hours, cells have begun to die and the activity is decreased. […] In the case of BCL2, it should be due to inhibition of apoptosis upstream of the enzyme. With CPP32 inhibitor peptide, it should be due to direct inhibition of enzymatic activity. These in vitro results are consistent with the results seen in cell death assays described above.

[5] = system: PKCa; assay: PKCa localization by immunohistochemistry after PMA stimulation; assay type: cell-based, Murine
[6] = system: cells; assay: Staurosporin induced apoptosis in cells expressing the peptide with a retrovirus; assay type: cell-based; details: peptide expressed in cells with a retrovirus
[7] = system: Jurkat EcoR cells; assay: IgM anti-Fas (CH-11) selection of retrovirus-transduced Jurkat cells; details: peptide expressed in cells with a retrovirus
Procedure: A sterile Acrodisc 0.45 micron syringe filter (Gelman Sciences) was attached to the end of a 10 ml sterile syringe and the injection stopper sterilely removed from the syringe barrel. At 48 hours post-transfection, the virus supernatant was removed from the Phoenix cells and added to the syringe barrel. The stopper was replaced and the virus supernatant was ejected dropwise into a clean, sterile conical tube. […] Polybrene was added to each viral supernatant (Sigma; 2.5 mg/ml in ddH20=500×; store at −20° C.) to a final concentration of 5 mg/ml. 4.5×10^6 Jurkat EcoR cells (Jurkat cells stably expressing the ecotropic retrovirus receptor) were pelleted for 1400 rpm for five min and resuspended in 9 mls of the OL-2 library virus supernatant. The cells were distributed in aliquots of 1 ml, or 5×10^5 cells, into the wells of a 24 well plate. 1.5×10^6 Jurkat EcoR cells were similarly treated with 3 mls each of the lacZ viral supernatant and the OL-1 viral supernatant. Each cell plate was wrapped in parafilm, placed in a microplate carrier (DuPont) and centrifuged at 2500 rpm for 90 min at 32° C. in a DuPont/Sorvall RT 6000B table top centrifuge. After centrifugation, the cells were observed under a microscope. […] The parafilm was removed from the plates, which were placed at 32° C. […]

## CN[C@@H]1C[C@H]2O[C@@](C)([C@@H]1OC)n1c3ccccc3c3c4c(c5c6ccccc6n2c5c31)C(=O)NC4 [staurosporine, Staurosporine]
[1]
  apoptosis: > 99%

## Bcl2: Bcl2 protein expressed from a retroviral vector; known inhibitor of apoptosis, positive control
[2]
  inhibition of apoptosis induced by tumor necrosis factor and cycloheximide (TUNEL): able to inhibit apoptosis
[3]
  inhibition of apoptosis induced by tumor necrosis factor and cycloheximide (PI staining): able to inhibit apoptosis
[4]
  CPP32 enzyme activity (cleavage of DEVD-pNA): this rise in activity is not seen

## GKQKTKTIKGPP
[5]
  translocation of PKCa to the nucleus: able to specifically inhibit translocation of activated PKCa

## MGKRKGDEVDGVGPP [OL-1]
[6]
  inhibition of Staurosporin induced apoptosis: inhibit
[7]
  inhibition of Fas-mediated apoptosis: inhibit
